Results from paper PMC10217883, “Structure of Leishmania donovani 6-Phosphogluconate Dehydrogenase and Inhibition by Phosphine Gold(I) Complexes: A Potential Approach to Leishmaniasis Treatment” (International Journal of Molecular Sciences, 2023).
Read-outs that look alike come from different tables or passages of the source.

Experiments:
[1] = target: Leishmania donovani 6-phosphogluconate dehydrogenase wild type (Leishmania donovani); experiment: SEC; HiLoad 16/60 Superdex 200 in buffer A (500 mM NaCl, 50 mM Tris, pH 7.8); native, with 5 mM DTT, with 2 mM H2O2, with 0.2 mM 6PG, 0.2 mM NADP+ or 0.2 mM NADPH; varying protein concentrations; the dimer peak was the same under all conditions
Ld6PGD [2] = target: T1, Ld6PGD (Leishmania donovani, UniProt Q18L02); experiment: Dose-response of gold(I)-based compounds against recombinant Ld6PGD (NADPH fluorescence); assay type: biochemical
Description: (§1) Dose–response curves of gold(I)-based compounds against Ld6PGD were determined in 96-well plates using a Tecan Infinite M200 plate reader (Tecan, Maennedorf, Switzerland). An amount of 10 mM of each compound was dissolved in 100% DMSO and afterwards diluted in assay buffer to the required concentrations (highest final compound concentration of 100 μM). The DMSO tolerance of the enzymes was determined in advance by incubating the enzymes with up to 6% DMSO and determining their activity. Up to this concentration, no impairment of the enzymes’ catalytic activity was observed. In addition, a DMSO control was included in each measurement.
Different compound concentrations were added to one volume of enzyme mix (final concentrations: 50 mM Tris (pH 7.5), 0.005% Tween 20, 1 mg∙mL^−1 BSA, 0.7 nM Ld6PGD/0.7 nM Pf6PGD/0.9 nM Hs6PGD) and incubated for ten minutes. To start the reaction, one volume substrate mix (final concentrations: 50 mM Tris (pH 7.5), 0.005% Tween 20, 1 mg∙mL^−1 BSA, 3.3 mM MgCl2, 25/20/25 µM 6PG, 20 µM NADP^+ for Ld6PGD, Pf6PGD and Hs6PGD) was added to the wells. To increase the sensitivity of the assay, the increase of NADPH was monitored by measuring the fluorescence of NADPH at excitation 340 nm/emission 460 nm (ex340/em460). The substrate mix without 6PG served as a positive control (100% inhibition) and without the compound, but with DMSO as a negative control (100% activity). The assay contained both substrates either in saturation or at concentrations close to KM to facilitate the identification of competitive inhibitors. The reaction rate was calculated by dividing the relative fluorescence units (RFU) by time, and only a linear increase in absorbance/fluorescence was considered. IC50 values were calculated using GraphPad Prism 9.0 software and Microsoft Excel.

[3] = target: TR from Leishmania infantum (LiTR); parameters: method as in PMID 21833767; conditions: read-out: Ki against recombinant TR from Leishmania infantum (LiTR); cited from earlier work
Ld6PGD [4] = target: T1, Ld6PGD; experiment: Reversibility of Ld6PGD inhibition (incubation at high concentration, then dilution); assay type: biochemical
Description: In detail, 14 nM Ld6PGD was incubated with 30 µM auranofin for 10 min at room temperature. […] Afterwards, NADP^+ and 6PG were added to start the reaction, either at substrate saturation (300 µM 6PG, 200 µM NADP^+) or at concentrations close to KM (25 µM 6PG, 20 µM NADP^+). For comparison, controls containing either no inhibitor (100% activity) or inhibitor in the concentration remaining after dilution were prepared. NADPH production was monitored at ex340 nm using the Tecan Infinite M200 plate reader in 96-well plates. Specific activities were calculated from reaction rates. […] Inhibition was considered reversible if the activity of the sample was equal to the controls.

Ld6PGD [5] = target: T1, Ld6PGD; experiment: Mode-of-inhibition study, substrate titration at constant auranofin concentrations (Michaelis-Menten); assay type: biochemical; conditions: for Vmax, NADP+ titrated: 6PG in saturation; for Vmax, 6PG titrated: NADP+ in saturation
Description: For the mechanistic characterization of auranofin, either NADP^+ (0–200 µM) or 6PG (0–250 µM) was titrated at different constant compound concentrations around the IC50 (0–30 µM), while keeping the second substrate in saturation (6PG: 300 µM, NADP^+: 200 µM). To determine the compound mode of inhibition, the relationship between initial velocity (v0) and substrate concentrations ([S]) at various constant compound concentrations was analyzed by plotting the data as Michaelis–Menten curves using GraphPad Prism; KM values and Vmax were calculated with GraphPad Prism as well.

Leishmania parasites = system: Leishmania parasites; parameters: method as in PMID 24328400, PMID 32463611, PMID 33139647; conditions: trypanosomatid parasites; cited from earlier work
Pf6PGD = Pf6PGD (Plasmodium falciparum, UniProt Q8IKT2); experiment: Dose-response against recombinant Pf6PGD (NADPH fluorescence); assay type: biochemical
Description: as §1
(§2) Different compound concentrations were added to one volume of enzyme mix (final concentrations: 50 mM Tris (pH 7.5), 0.005% Tween 20, 1 mg∙mL^−1 BSA, 0.7 nM Ld6PGD/0.7 nM Pf6PGD/0.9 nM Hs6PGD) and incubated for ten minutes. […] To increase the sensitivity of the assay, the increase of NADPH was monitored by measuring the fluorescence of NADPH at excitation 340 nm/emission 460 nm (ex340/em460). […] The reaction rate was calculated by dividing the relative fluorescence units (RFU) by time, and only a linear increase in absorbance/fluorescence was considered. IC50 values were calculated using GraphPad Prism 9.0 software and Microsoft Excel.

Hs6PGD = target: T2, Hs6PGD (Homo sapiens, UniProt P52209); experiment: Dose-response against recombinant Hs6PGD (NADPH fluorescence); assay type: biochemical; conditions: 25 µM 6PG, 20 µM NADP+, highest concentration 100 µM; read-out: IC50 for recombinant protein Hs6PGD
T2 sequence (P52209 1-483): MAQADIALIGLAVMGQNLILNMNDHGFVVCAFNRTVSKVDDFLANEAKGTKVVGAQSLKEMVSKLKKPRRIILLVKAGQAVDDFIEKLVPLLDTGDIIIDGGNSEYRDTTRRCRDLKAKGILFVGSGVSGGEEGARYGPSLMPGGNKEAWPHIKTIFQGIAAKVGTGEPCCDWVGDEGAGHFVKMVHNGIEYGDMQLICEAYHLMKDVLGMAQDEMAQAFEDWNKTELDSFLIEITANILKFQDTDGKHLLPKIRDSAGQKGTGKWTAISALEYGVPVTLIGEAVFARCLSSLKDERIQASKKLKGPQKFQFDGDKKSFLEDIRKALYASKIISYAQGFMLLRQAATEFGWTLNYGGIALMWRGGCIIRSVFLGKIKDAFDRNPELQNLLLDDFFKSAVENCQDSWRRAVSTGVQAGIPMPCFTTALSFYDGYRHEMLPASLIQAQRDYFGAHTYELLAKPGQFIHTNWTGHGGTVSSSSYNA
Description: as §1, §2

## Leishmania donovani 6-phosphogluconate dehydrogenase wild type (enzyme)
[1]
  stoichiometry N: 2

## [Cl][Au].c1ccc(P(c2ccccc2)c2ccccc2)cc1 [Ph3PAuCl, chloro(triphenylphosphine)gold(I)]
Ld6PGD [2]; substrates close to KM (25 µM 6PG, 20 µM NADP+), 10 min incubation with enzyme, read-out: IC50 for recombinant protein Ld6PGD
  IC50: 2.1 ± 0.3 µM

## CC(=O)OC[C@H]1O[C@@H]([S-])[C@H](OC(C)=O)[C@@H](OC(C)=O)[C@@H]1OC(C)=O.CCP(CC)CC.[Au+] [Auranofin]
[3]
  Ki: 0.155 ± 0.035 µM
Ld6PGD [4]; 30 µM auranofin (pre-dilution), substrates at KM
  Ld6PGD activity of undiluted sample: completely inhibited
Ld6PGD [4]; 30 µM pre-dilution, diluted to 3 µM, 10 min each
  Reversibility of Ld6PGD inhibition: irreversible
Ld6PGD [2]; 50 µM auranofin
  Inhibition of Ld6PGD at 50 µM: completely inhibited
Ld6PGD [2]; enzyme incubated with auranofin and NADP+ at saturation, compared with IC50 at KM
  IC50 against Ld6PGD with NADP+ at saturation: unaffected
Ld6PGD [5]; 6PG titrated, NADP+ 200 µM
  Mode of inhibition against 6PG: mixed type of inhibition
Ld6PGD [5]; NADP+ titrated, 6PG 300 µM
  Mode of inhibition against NADP+: non-competitive inhibition
Ld6PGD [5]; auranofin 1.875 µM
  Vmax, NADP+ titrated: 35.9 U/mg
  Vmax, 6PG titrated: 36.43 U/mg
Ld6PGD [5]; auranofin 3.75 µM
  Vmax, NADP+ titrated: 34.45 U/mg
  Vmax, 6PG titrated: 35.23 U/mg
Ld6PGD [5]; auranofin 7.5 µM
  Vmax, NADP+ titrated: 34.92 U/mg
  Vmax, 6PG titrated: 29.59 U/mg
Ld6PGD [5]; auranofin 15 µM
  Vmax, NADP+ titrated: 31.07 U/mg
  Vmax, 6PG titrated: 21.59 U/mg
Ld6PGD [5]; auranofin 30 µM
  Vmax, NADP+ titrated: 23.34 U/mg
  Vmax, 6PG titrated: 7.71 U/mg
Leishmania parasites
  Concentrations at which increase in ROS and apoptotic-like cell death were observed: 10 to 50 µM

## CC[P](CC)(CC)=[Au][S][C@@H]1O[C@H](COC(C)=O)[C@@H](OC(C)=O)[C@H](OC(C)=O)[C@H]1OC(C)=O [Auranofin]
Ld6PGD [2]
  Ki: 3.8 ± 0.4 µM
Ld6PGD [2]; IC50 against Ld6PGD with 6PG at saturation, enzyme incubated with auranofin and 6PG at saturation
  IC50: 40.5 ± 1.9 µM
Ld6PGD [2]; IC50 for recombinant protein Ld6PGD, substrates close to KM (25 µM 6PG, 20 µM NADP+), 10 min incubation with enzyme
  IC50: 8.6 ± 1 µM
Pf6PGD
  IC50: 20.1 ± 1.5 µM
Hs6PGD
  IC50: > 100 µM
